Measured values: ChEMBL document CHEMBL4823324, “Discovery of BMS-986318, a Potent Nonbile Acid FXR Agonist for the Treatment of Nonalcoholic Steatohepatitis” (ACS Med Chem Lett, 2021)
pEC50, pIC50: −log10 of the molar value.

Legend:
[1] = target: T1, Peroxisome proliferator-activated receptor alpha (Homo sapiens, UniProt Q07869); assay: Activation of PPARalpha LBD (unknown origin) co-expressed with Gal4UAS-luciferase reporter in HEK293 cells incubated for 24 hrs by Steady-Glo luciferase reporter gene based luminescence analysis; format: cell-based
T1 sequence (Q07869 whole entry): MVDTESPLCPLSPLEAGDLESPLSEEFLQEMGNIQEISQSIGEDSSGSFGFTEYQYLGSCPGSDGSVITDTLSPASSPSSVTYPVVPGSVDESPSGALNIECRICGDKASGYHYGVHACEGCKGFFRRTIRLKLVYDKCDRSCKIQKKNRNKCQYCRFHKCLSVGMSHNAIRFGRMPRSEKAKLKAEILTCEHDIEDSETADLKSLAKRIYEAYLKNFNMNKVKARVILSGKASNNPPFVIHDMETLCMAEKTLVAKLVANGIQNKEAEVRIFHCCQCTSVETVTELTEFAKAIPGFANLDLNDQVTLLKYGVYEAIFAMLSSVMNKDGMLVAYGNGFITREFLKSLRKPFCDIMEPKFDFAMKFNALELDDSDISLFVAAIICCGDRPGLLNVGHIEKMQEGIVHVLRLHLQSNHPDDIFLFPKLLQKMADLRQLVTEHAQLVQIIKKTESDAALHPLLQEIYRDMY

Estrogen receptor = target: T2, Estrogen receptor (Homo sapiens, UniProt P03372); assay: Activation of estrogen receptor alpha (unknown origin) by fluorescence polarization based competition assay
T2 sequence (P03372 whole entry): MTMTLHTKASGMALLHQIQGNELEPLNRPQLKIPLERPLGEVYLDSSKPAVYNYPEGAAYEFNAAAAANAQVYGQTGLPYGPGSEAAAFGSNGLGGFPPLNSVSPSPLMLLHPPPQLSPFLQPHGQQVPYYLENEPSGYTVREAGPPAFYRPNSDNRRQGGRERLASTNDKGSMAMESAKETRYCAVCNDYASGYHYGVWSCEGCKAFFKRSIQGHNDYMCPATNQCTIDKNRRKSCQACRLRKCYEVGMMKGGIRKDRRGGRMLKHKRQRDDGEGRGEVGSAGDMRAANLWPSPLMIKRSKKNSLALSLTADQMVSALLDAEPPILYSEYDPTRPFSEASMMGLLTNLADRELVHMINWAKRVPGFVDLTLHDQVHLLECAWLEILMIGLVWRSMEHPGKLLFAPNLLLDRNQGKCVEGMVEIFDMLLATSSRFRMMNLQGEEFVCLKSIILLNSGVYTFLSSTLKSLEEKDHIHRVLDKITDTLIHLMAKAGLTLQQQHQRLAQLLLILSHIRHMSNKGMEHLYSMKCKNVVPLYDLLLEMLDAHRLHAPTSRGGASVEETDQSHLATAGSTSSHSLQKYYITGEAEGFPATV

[2] = target: T3, Nuclear receptor ROR-gamma (Homo sapiens, UniProt P51449); assay: Displacement of [3H]25-hydroxycholesterol from human N-terminal His-tagged RORgammaT LBD (262 to 508 residues) expressed in Escherichia coli preincubated for 10 mins followed by addition [3H]25-OH cholesterol and measured after 10 mins by scintillation proximity assay
T3 sequence (P51449 whole entry): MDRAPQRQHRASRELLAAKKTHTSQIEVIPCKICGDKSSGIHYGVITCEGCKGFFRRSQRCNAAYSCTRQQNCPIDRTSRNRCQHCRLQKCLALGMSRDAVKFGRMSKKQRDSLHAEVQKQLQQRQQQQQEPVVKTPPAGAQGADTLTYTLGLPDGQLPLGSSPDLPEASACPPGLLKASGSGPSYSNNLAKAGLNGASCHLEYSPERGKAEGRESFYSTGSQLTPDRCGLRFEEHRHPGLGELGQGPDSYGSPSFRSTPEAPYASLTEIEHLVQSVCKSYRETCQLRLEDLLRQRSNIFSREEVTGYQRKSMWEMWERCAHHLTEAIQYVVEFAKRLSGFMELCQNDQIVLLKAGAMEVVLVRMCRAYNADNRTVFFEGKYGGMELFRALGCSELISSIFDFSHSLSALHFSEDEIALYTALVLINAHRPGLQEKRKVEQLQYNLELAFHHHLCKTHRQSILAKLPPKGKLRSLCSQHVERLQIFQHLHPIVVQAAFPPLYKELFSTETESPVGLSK

[3] = target: T4, Oxysterols receptor LXR-beta (Homo sapiens, UniProt P55055); assay: Activation of human LXRbeta co-expressed with TK-luciferase reporter in African green monkey CV-1 cells incubated for overnight by Steady-Glo luciferase reporter gene based luminescence analysis; format: cell-based
T4 sequence (P55055 whole entry): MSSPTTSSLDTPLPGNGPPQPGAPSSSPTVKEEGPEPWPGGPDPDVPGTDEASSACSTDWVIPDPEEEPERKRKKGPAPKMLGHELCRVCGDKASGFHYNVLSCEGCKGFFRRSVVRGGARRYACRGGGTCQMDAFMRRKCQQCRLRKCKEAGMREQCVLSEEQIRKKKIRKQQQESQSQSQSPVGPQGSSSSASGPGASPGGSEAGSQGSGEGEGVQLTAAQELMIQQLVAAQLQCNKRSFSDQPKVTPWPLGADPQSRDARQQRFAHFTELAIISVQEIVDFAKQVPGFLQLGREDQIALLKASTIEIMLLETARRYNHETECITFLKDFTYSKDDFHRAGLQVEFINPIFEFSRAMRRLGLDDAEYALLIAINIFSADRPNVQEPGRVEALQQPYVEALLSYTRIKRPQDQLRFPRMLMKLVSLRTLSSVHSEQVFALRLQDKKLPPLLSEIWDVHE

Cytochrome P450 2C8 = target: T5, Cytochrome P450 2C8 (Homo sapiens, UniProt P10632); assay: Inhibition of CYP2C8 (unknown origin) expressed in baculovirus infected insect supersomes preincubated for 15 mins followed by addition of NADPH regenerating system and measured after 2 hrs by fluorescence based analysis; format: ADME
T5 sequence (P10632 whole entry): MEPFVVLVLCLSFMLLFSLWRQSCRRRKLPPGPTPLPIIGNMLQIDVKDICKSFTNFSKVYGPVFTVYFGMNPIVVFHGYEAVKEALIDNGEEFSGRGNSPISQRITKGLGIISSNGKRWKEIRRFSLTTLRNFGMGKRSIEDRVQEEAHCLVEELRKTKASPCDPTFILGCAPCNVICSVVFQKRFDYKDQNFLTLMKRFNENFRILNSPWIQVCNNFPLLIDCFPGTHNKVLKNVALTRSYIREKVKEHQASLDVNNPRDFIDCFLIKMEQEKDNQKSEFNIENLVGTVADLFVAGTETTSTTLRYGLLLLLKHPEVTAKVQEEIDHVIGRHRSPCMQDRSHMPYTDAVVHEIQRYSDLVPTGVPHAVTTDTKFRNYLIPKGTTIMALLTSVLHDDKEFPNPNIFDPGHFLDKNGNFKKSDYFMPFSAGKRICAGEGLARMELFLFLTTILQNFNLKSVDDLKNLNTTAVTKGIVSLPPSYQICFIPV

[4] = Cmax in C57B6 mouse at 1 mg/kg, iv; format: ADME, organism-based; design: route intravenous, dose 1 mg/kg; conditions: in vivo

pEC50 [1]: < 4.40 | pEC50 (Estrogen receptor): < 4.40 | pIC50 [2]: < 4.40 | pEC50 [3]: < 4.40 | pIC50 (Cytochrome P450 2C8): 5.38 | Cmax [4]: 1490 nM
SMILES: O=C(O)c1cc(C(F)(F)F)c2cc(N3CCC4(C=C(c5c(-c6c(Cl)cncc6Cl)noc5C5CC5)C4)CC3)ccc2n1
